Laboratory results from patent US20130065965A1, “DI(4-CHLORO-PHENYLDIGUANIDO) DERIVATIVE WHICH IS FREE OF POTENTIAL GENOTOXICITY AND A PROCESS FOR REDUCING THE RESIDUAL AMOUNT OF P-CHLOROANILINE IN SAID DI(4-CHLORO-PHENYLDIGUANIDO) DERIVATIVE” (MEDICHEM S.A., priority 2009, published 2013).
Where two headings read alike, the source gives them in different places. Values belong to the molecule of their own block, whether it stands above or below them.

Experiments:
[1] = assay type: physicochemical; conditions: for p-chloroaniline (ppm, HPLC method 1): methanol:acetic acid 8:1 (v/v), 40° C.; for p-chloroaniline (ppm, HPLC method 1), Average: methanol:acetic acid 8:1, 40° C.
Method: HPLCs were acquired on a Waters Alliance 2695 LC system. Column: Kromasil C18, 5 μm, 4.6×250 mm. Flow rate: 1 mL/min. Detector: UV, 254 nm. Mobile phase A: (33:9.5:57.5; v/v/v) 1-octanesulfonic acid sodium salt solution/glacial acetic acid/methanol. The 1-octanesulfonic acid sodium salt solution was prepared dissolving 1.6 g of 1-octanesulfonic acid sodium salt in 330 ml of water and adding 95 ml of glacial acetic acid and 575 ml of methanol. Mobile phase B: methanol. Gradient: 100% A (0-20 min)-85% A (40-65 min)-100% A (70-80 min). Temperature: 30° C. Sample: 10 mg/mL in mobile phase A. Injection volume: 10 μL.
Limit of detection (LOD): 3 ppm of p-chloroaniline.
Two 100 mg aliquots of a sample of chlorhexidine free of potential genotoxicity (Replicates A and B), having a content of p-chloroaniline below 40-50 ppm, a content of each of compounds of Markush formula (IV) (i.e. impurities B-G) below 0.15%, and a total impurities content below 1.5%, as measured by HPLC method 1, were dissolved in 1 mL of a mixture of methanol and acetic acid 8:1 (v/v), and each solution was stored in 5 different closed glass vials at 40° C. These vials were opened after 1, 2, 4, 14, and 25 days of storage, respectively, and the content of p-chloroaniline was measured (HPLC method 1). A linear regression line was calculated from the data obtained in Table 1 (y=2170x-356, R^2=0.991, where “y” represents the measured content of p-chloro aniline in ppm units and “x” represents the degradation time in day units; See FIG. 1).
Three 100 mg aliquots of a sample of chlorhexidine (Replicates C, D and E), having a content of p-chloroaniline of less than 40-50 ppm, a content of each of compounds of Markush formula (IV) (i.e. impurities B-G) higher than 0.15%, and a total impurities content below 2.5-3.0%, as measured by HPLC method 1, were dissolved in 1 mL of a mixture of methanol and acetic acid 8:1 (v/v), and each solution was stored in 2 different closed glass vials at 40° C. These vials were opened after 12 and 19 days of storage, respectively, and the content of p-chloroaniline was measured (HPLC method 1).

[2] = Stability study of aqueous solutions of chlorhexidine digluconate (p-chloroaniline by colorimetric method, European Pharmacopoeia 6.0); assay type: physicochemical; conditions: 20% aqueous solution; for p-chloroaniline (ppm, Colorimetry), 3 months: closed vial, protected from light
Method: In the U.S. Pharmacopoeia (First Supplement to the USP 33-NF 28 Reissue, USP Monographs: Chlorhexidine Gluconate Solution) it is described that the digluconate salt of chlorhexidine in aqueous solution should be preserved in tight containers, protected from light, and at controlled room temperature (i.e. about 25° C.). In this regard, the present inventors have observed that a 20% (w/v) aqueous solution of the chlorhexidine digluconate of the invention which is free of potential genotoxicity (i.e. having a content of p-chloroaniline lower than 40-50 ppm, with respect to the chlorhexidine base) can become moderately potentially genotoxic (i.e. showing a content of p-chloroaniline dramatically close to higher than 40-50 ppm) after 3 months of storage at 25° C., and highly potentially genotoxic (i.e. showing a content of p-chloroaniline much higher than 40-50 ppm) after 3 months of storage at 40° C. […] Conversely, when storing the aqueous solution of chlorhexidine digluconate of the invention at 15° C., the free-genotoxic stability (i.e. a content of p-chloroaniline lower than 40-50 ppm) is kept at low values for at least 3 months (See Example 12).
Two samples corresponding to a 20% (v/w) aqueous solution of chlorhexidine digluconate which was prepared from the chlorhexidine of Example 10, were stored in a closed vial, under different temperature conditions (i.e. 15° C., 25° C., and 40° C.) for 3 months in a closed chamber protected from light. The potentially free genotoxicity stability of the samples (i.e. the presence of p-chloroaniline) was measured by the colorimetric method described for measuring p-chloroaniline in chlorhexidine digluconate solution in European Pharmacopoeia 6.0 (page 1501).

[3] = 1 day of storage, sample with impurities B-G below 0.15%, 0.54% total impurities
[4] = 2 days of storage, sample with impurities B-G below 0.15%, 0.54% total impurities
[5] = 4 days of storage, sample with impurities B-G below 0.15%, 0.54% total impurities
[6] = 14 days of storage, sample with impurities B-G below 0.15%, 0.54% total impurities
[7] = 25 days of storage, sample with impurities B-G below 0.15%, 0.54% total impurities
[8] = 12 days of storage, sample with impurities B-G higher than 0.15%, 2.64% total impurities
[9] = 19 days of storage, sample with impurities B-G higher than 0.15%, 2.64% total impurities

SMILES: N=C(NCCCCCCNC(=N)NC(=N)Nc1ccc(Cl)cc1)NC(=N)Nc1ccc(Cl)cc1 [Replicate A]
p-chloroaniline (ppm, HPLC method 1) [1, 3]: 1,556 ppm
p-chloroaniline (ppm, HPLC method 1) [1, 4]: 3,357 ppm
p-chloroaniline (ppm, HPLC method 1) [1, 5]: 6,284 ppm
p-chloroaniline (ppm, HPLC method 1) [1, 6]: 33,753 ppm
p-chloroaniline (ppm, HPLC method 1) [1, 7]: 52,561 ppm

SMILES: N=C(NCCCCCCNC(=N)NC(=N)Nc1ccc(Cl)cc1)NC(=N)Nc1ccc(Cl)cc1 [Replicate B]
p-chloroaniline (ppm, HPLC method 1) [1, 3]: 1,925 ppm
p-chloroaniline (ppm, HPLC method 1) [1, 4]: 3,609 ppm
p-chloroaniline (ppm, HPLC method 1) [1, 5]: 7,819 ppm
p-chloroaniline (ppm, HPLC method 1) [1, 6]: 33,575 ppm
p-chloroaniline (ppm, HPLC method 1) [1, 7]: 51,656 ppm

SMILES: N=C(NCCCCCCNC(=N)NC(=N)Nc1ccc(Cl)cc1)NC(=N)Nc1ccc(Cl)cc1 [Replicate C]
p-chloroaniline (ppm, HPLC method 1) [1, 8]: 33657 ppm
p-chloroaniline (ppm, HPLC method 1) [1, 9]: 45243 ppm

SMILES: N=C(NCCCCCCNC(=N)NC(=N)Nc1ccc(Cl)cc1)NC(=N)Nc1ccc(Cl)cc1 [Replicate D]
p-chloroaniline (ppm, HPLC method 1) [1, 8]: 33153 ppm
p-chloroaniline (ppm, HPLC method 1) [1, 9]: 46753 ppm

The next lines start with the values.

p-chloroaniline (ppm, HPLC method 1) [1, 8]: 33568 ppm
p-chloroaniline (ppm, HPLC method 1) [1, 9]: 47577 ppm
SMILES: N=C(NCCCCCCNC(=N)NC(=N)Nc1ccc(Cl)cc1)NC(=N)Nc1ccc(Cl)cc1 [Replicate E]

p-chloroaniline, Increasing (%) ([2]; 3 months at 15° C.): 433%
p-chloroaniline, Increasing (%) ([2]; 3 months at 25° C.): 1533%
p-chloroaniline, Increasing (%) ([2]; 3 months at 40° C.): 4233%
p-chloroaniline (ppm, Colorimetry), Initial ([2]; sample to be stored at 15° C.): 3 ppm
p-chloroaniline (ppm, Colorimetry), Initial ([2]; sample to be stored at 25° C.): 3 ppm
p-chloroaniline (ppm, Colorimetry), Initial ([2]; sample to be stored at 40° C.): 3 ppm
p-chloroaniline (ppm, Colorimetry), 3 months ([2]; storage at 15° C.): 16 ppm
p-chloroaniline (ppm, Colorimetry), 3 months ([2]; storage at 25° C.): 49 ppm
p-chloroaniline (ppm, Colorimetry), 3 months ([2]; storage at 40° C.): 130 ppm
SMILES: N=C(NCCCCCCNC(=N)NC(=N)Nc1ccc(Cl)cc1)NC(=N)Nc1ccc(Cl)cc1.O=C(O)[C@H](O)[C@@H](O)[C@H](O)[C@H](O)CO.O=C(O)[C@H](O)[C@@H](O)[C@H](O)[C@H](O)CO [chlorhexidine digluconate]

linear regression line, degradation rate towards p-chloroaniline [1]: 2170x-356
p-chloroaniline (ppm, HPLC method 1), Average ([1]; average of Replicates A and B, 1 day, 0.54% total impurities sample): 1,741 ppm
p-chloroaniline (ppm, HPLC method 1), Average ([1]; average of Replicates A and B, 2 days, 0.54% total impurities sample): 3,483 ppm
p-chloroaniline (ppm, HPLC method 1), Average ([1]; average of Replicates A and B, 4 days, 0.54% total impurities sample): 7,052 ppm
p-chloroaniline (ppm, HPLC method 1), Average ([1]; average of Replicates A and B, 14 days, 0.54% total impurities sample): 33,664 ppm
p-chloroaniline (ppm, HPLC method 1), Average ([1]; average of Replicates A and B, 25 days, 0.54% total impurities sample): 52,109 ppm
p-chloroaniline (ppm, HPLC method 1), Average ([1]; average of Replicates C, D and E, 12 days, 2.64% total impurities sample): 33459 ppm
p-chloroaniline (ppm, HPLC method 1), Average ([1]; average of Replicates C, D and E, 19 days, 2.64% total impurities sample): 46524 ppm
SMILES: [H]/N=C(\N/C(=N/[H])NCCCCCCNC(=N)NC(=N)Nc1ccc(Cl)cc1)Nc1ccc(Cl)cc1 [chlorhexidine, 1-[amino-[6-[amino-[amino-(4-chlorophenyl)aminomethylidene]aminomethylidene]amino-hexylimino]methyl]imino-N-(4-chlorophenyl)-methanediamine]
